Measured values as given in US20120115724A1, “METHOD OF CONTROLLING UNDESIRED VEGETATION” (SYNGENTA CROP PROTECTION LLC, priority 2009, published 2012).

Tests used:
Type in all cases: in vivo
IPOHE Ipomoea hederacea = test: Post-emergence crop and weed test (Example 15); conditions: 360 h, after 15 days, read-out: Percentage damage IPOHE
Summary of the method: (§1)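 Post-emergence spray on 14-day glasshouse plants; 5% formulated stock diluted with water + 0.2% (v/v) X-77. Grown on at 22/16 °C, 16 h light, 65% RH, watered twice daily. Visual damage rated day 15, 0–100 scale.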

[1] = test system: ABUTH Abutilon theophrasti; test: Post-emergence crop and weed test (Example 15); conditions: 360 h, after 15 days, read-out: Percentage damage ABUTH
Summary of the method: as §1

SINAR Sinapis arvensis = test: Post-emergence crop and weed test (Example 15); conditions: Mutarda arvensis, 360 h, after 15 days, read-out: Percentage damage SINAR
Summary of the method: as §1

[2] = test system: EPHHL Euphorbia heterophylla; test: Post-emergence crop and weed test (Example 15); conditions: 360 h, after 15 days, read-out: Percentage damage EPHHL
Summary of the method: as §1

SIDSP Sida spinosa = test: Post-emergence crop and weed test (Example 15); conditions: 360 h, after 15 days, read-out: Percentage damage SIDSP
Summary of the method: as §1

GLXMA Soybean = test: Post-emergence crop and weed test (Example 15); conditions: Glycine max, 360 h, after 15 days, read-out: Percentage damage GLXMA
Summary of the method: as §1

VERPE Veronica persica = test: Post-emergence crop and weed test (Example 15); conditions: 360 h, after 15 days, read-out: Percentage damage VERPE
Summary of the method: as §1

[3] = test system: AMARE Amaranthus retroflexus; test: Post-emergence crop and weed test (Example 15); conditions: 360 h, after 15 days, read-out: Percentage damage AMARE
Summary of the method: as §1

[4] = test system: POLCO Polygonum convolvulus; test: Post-emergence crop and weed test (Example 15); conditions: Fallopia convolvulus, 360 h, after 15 days, read-out: Percentage damage POLCO
Summary of the method: as §1

[5] = test system: XANST Xanthium strumarium; test: Post-emergence crop and weed test (Example 15); conditions: 360 h, after 15 days, read-out: Percentage damage XANST
Summary of the method: as §1

KCHSC Kochia scoparia = test: Post-emergence crop and weed test (Example 15); conditions: Bassia scoparia, 360 h, after 15 days, read-out: Percentage damage KCHSC
Summary of the method: as §1

Setaria faberi (SETFA) [6] = test: Post-emergence biological efficacy (Example 14); conditions: Setaria faberi, 312 h; post-emergence, 1,000 g/ha, after 13 days; read-out: Percentage damage SETFA
Summary of the method: (§2)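 Post-emerg. spray, 250 or 1000 g/ha; vehicle acetone/H2O 50:50 + 0.5% Tween 20. Plants 8 d old at treatment; glasshouse 24/16 °C, 14 h photoperiod, 65% humidity. Scored d13, 0–100 damage.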

[7] = test system: Echinochloa crus-galli (ECHCG); test: Post-emergence biological efficacy (Example 14); conditions: Echinochloa crus-galli, 312 h; post-emergence, 1,000 g/ha, after 13 days; read-out: Percentage damage ECHCG
Summary of the method: as §2

[8] = test system: Alopecurus myosuroides (ALOMY); test: Post-emergence biological efficacy (Example 14); conditions: Alopecurus myosuroides, 312 h; post-emergence, 1,000 g/ha, after 13 days; read-out: Percentage damage ALOMY
Summary of the method: as §2

[9] = test system: Amaranthus retroflexus (AMARE); test: Post-emergence biological efficacy (Example 14); conditions: Amaranthus retroflexus, 312 h; post-emergence, 1,000 g/ha, after 13 days; read-out: Percentage damage AMARE
Summary of the method: as §2

[10] = test system: Ipomea hederaceae (IPOHE); test: Post-emergence biological efficacy (Example 14); conditions: Ipomoea hederacea, 312 h; post-emergence, 1,000 g/ha, after 13 days; read-out: Percentage damage IPOHE
Summary of the method: as §2

Solanum nigrum (SOLNI) = test: Post-emergence biological efficacy (Example 14); conditions: Solanum nigrum, 312 h; post-emergence, 1,000 g/ha, after 13 days; read-out: Percentage damage SOLNI
Summary of the method: as §2

Setaria faberi (SETFA) [11] = test: Pre-emergence biological efficacy (Example 13); conditions: Setaria faberi, 312 h; pre-emergence, 1,000 g/ha, after 13 days; read-out: Percentage damage SETFA
Summary of the method: (§3)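 Phytotoxicity was rated on a 0 (no damage) to 100 (total damage) scale 13 days after treatment. Test compound was sprayed at 250 or 1000 g/ha onto soil-sown pots one day after sowing, using acetone/water (50:50) with 0.5% Tween 20 diluted in water.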

[12] = test system: Amaranthus retroflexus (AMARE); test: Pre-emergence biological efficacy (Example 13); conditions: Amaranthus retroflexus, 312 h; pre-emergence, 1,000 g/ha, after 13 days; read-out: Percentage damage AMARE
Summary of the method: as §3

## C/C=C\c1c(N)nc(-c2ccc(Cl)c(N(C)C)c2F)nc1C(=O)OC [Compound 5, (Z)-4-Amino-2-(4-chloro-3-dimethylamino-2-fluorophenyl)-6-methoxy-carbonyl-5-(prop-1-enyl)-pyrimidine]
IPOHE Ipomoea hederacea; 30 g/ha
  pest or weed control at 30 g/ha: 0%
[1]; 30 g/ha
  pest or weed control at 30 g/ha: 40%
SINAR Sinapis arvensis; 30 g/ha
  pest or weed control at 30 g/ha: 80%
[2]; 30 g/ha
  pest or weed control at 30 g/ha: 60%
SIDSP Sida spinosa; 30 g/ha
  pest or weed control at 30 g/ha: 0%
GLXMA Soybean; 30 g/ha
  plant injury at 30 g/ha: 0%
VERPE Veronica persica; 30 g/ha
  pest or weed control at 30 g/ha: 60%
[3]; 30 g/ha
  pest or weed control at 30 g/ha: 90%
[4]; 30 g/ha
  pest or weed control at 30 g/ha: 90%
[5]; 30 g/ha
  pest or weed control at 30 g/ha: 70%
KCHSC Kochia scoparia; 30 g/ha
  pest or weed control at 30 g/ha: 70%
Setaria faberi (SETFA) [6]
  pest or weed control at 1000 g/ha: 70%
[7]
  pest or weed control at 1000 g/ha: 70%
[8]
  pest or weed control at 1000 g/ha: 60%
[9]
  pest or weed control at 1000 g/ha: 100%
[10]
  pest or weed control at 1000 g/ha: 30%
Solanum nigrum (SOLNI)
  pest or weed control at 1000 g/ha: 80%
Setaria faberi (SETFA) [11]
  pest or weed control at 1000 g/ha: 30%
[12]
  pest or weed control at 1000 g/ha: 70%

## C/C=C\c1c(N)nc(-c2ccc(Cl)c(OC)c2F)nc1C(=O)OC [Compound 4, (Z)-4-Amino-2-(4-chloro-2-fluoro-3-methoxy-phenyl)-6-methoxy-carbonyl-5-(prop-1-enyl)-pyrimidine]
IPOHE Ipomoea hederacea; 8 g/ha
  pest or weed control at 8 g/ha: 70%
[1]; 8 g/ha
  pest or weed control at 8 g/ha: 60%
SINAR Sinapis arvensis; 8 g/ha
  pest or weed control at 8 g/ha: 60%
[2]; 8 g/ha
  pest or weed control at 8 g/ha: 90%
SIDSP Sida spinosa; 8 g/ha
  pest or weed control at 8 g/ha: 50%
GLXMA Soybean; 8 g/ha
  plant injury at 8 g/ha: 20%
VERPE Veronica persica; 8 g/ha
  pest or weed control at 8 g/ha: 80%
[3]; 8 g/ha
  pest or weed control at 8 g/ha: 80%
[4]; 8 g/ha
  pest or weed control at 8 g/ha: 70%
[5]; 8 g/ha
  pest or weed control at 8 g/ha: 90%
KCHSC Kochia scoparia; 8 g/ha
  pest or weed control at 8 g/ha: 30%
Setaria faberi (SETFA) [6]
  pest or weed control at 1000 g/ha: 90%
[7]
  pest or weed control at 1000 g/ha: 80%
[8]
  pest or weed control at 1000 g/ha: 70%
[9]
  pest or weed control at 1000 g/ha: 100%
[10]
  pest or weed control at 1000 g/ha: 100%
Solanum nigrum (SOLNI)
  pest or weed control at 1000 g/ha: 80%
Setaria faberi (SETFA) [11]
  pest or weed control at 1000 g/ha: 80%
[12]
  pest or weed control at 1000 g/ha: 100%

## C/C=C/c1c(N)nc(-c2ccc(Cl)c(OC)c2F)nc1C(=O)OC [Compound 3, (E)-4-Amino-2-(4-chloro-2-fluoro-3-methoxy-phenyl)-6-methoxy-carbonyl-5-(prop-1-enyl)-pyrimidine]
IPOHE Ipomoea hederacea; 125 g/ha
  pest or weed control at 125 g/ha: 80%
[1]; 125 g/ha
  pest or weed control at 125 g/ha: 80%
SINAR Sinapis arvensis; 125 g/ha
  pest or weed control at 125 g/ha: 70%
[2]; 125 g/ha
  pest or weed control at 125 g/ha: 90%
SIDSP Sida spinosa; 125 g/ha
  pest or weed control at 125 g/ha: 80%
GLXMA Soybean; 125 g/ha
  plant injury at 125 g/ha: 0%
VERPE Veronica persica; 125 g/ha
  pest or weed control at 125 g/ha: 80%
[3]; 125 g/ha
  pest or weed control at 125 g/ha: 100%
[4]; 125 g/ha
  pest or weed control at 125 g/ha: 90%
[5]; 125 g/ha
  pest or weed control at 125 g/ha: 80%
KCHSC Kochia scoparia; 125 g/ha
  pest or weed control at 125 g/ha: 80%
Setaria faberi (SETFA) [6]
  pest or weed control at 1000 g/ha: 100%
[7]
  pest or weed control at 1000 g/ha: 100%
[8]
  pest or weed control at 1000 g/ha: 90%
[9]
  pest or weed control at 1000 g/ha: 100%
[10]
  pest or weed control at 1000 g/ha: 90%
Solanum nigrum (SOLNI)
  pest or weed control at 1000 g/ha: 100%
Setaria faberi (SETFA) [11]
  pest or weed control at 1000 g/ha: 80%
[12]
  pest or weed control at 1000 g/ha: 50%
